From PMC3447118 (Bioconjugate chemistry, 2012)

Experiments:
[1] = microPET imaging of U87MG tumor xenografts in mice; type: in vivo, nude mice; conditions: nude, mouse, iv, total radioactivity
U87MG tumor xenografts = assay: microPET imaging of U87MG tumor xenografts in mice; type: in vivo, nude mice
[2] = tumor versus muscle (background)

- tissue uptake at 0.5 h ([1]; kidney, 20 mg/kg): 2.76 ± 0.85 %ID/g
- tissue uptake at 1 h ([1]; kidney, 20 mg/kg): 1.26 ± 0.23 %ID/g
- tissue uptake at 2 h ([1]; kidney, 20 mg/kg): 0.81 ± 0.04 %ID/g
- tissue uptake at 0.5 h ([1]; kidney): 5.46 ± 1.1 %ID/g
- tissue uptake at 1 h ([1]; kidney): 3.99 ± 1.08 %ID/g
- tissue uptake at 2 h ([1]; kidney): 2.26 ± 0.67 %ID/g
- tissue uptake at 0.5 h ([1]; liver, 20 mg/kg): 1.34 ± 0.06 %ID/g
- tissue uptake at 1 h ([1]; liver, 20 mg/kg): 0.7 ± 0.08 %ID/g
- tissue uptake at 2 h ([1]; liver, 20 mg/kg): 0.32 ± 0.01 %ID/g
- tissue uptake at 0.5 h ([1]; liver): 3.64 ± 0.76 %ID/g
- tissue uptake at 1 h ([1]; liver): 2.84 ± 0.76 %ID/g
- tissue uptake at 2 h ([1]; liver): 2.15 ± 0.53 %ID/g
- tissue to tissue ratio at 0.5 h [1, 2]: 4.5 ± 0.83
- tissue to tissue ratio at 1 h [1, 2]: 5.4 ± 0.72
- tissue to tissue ratio at 2 h [1, 2]: 6.3 ± 1.1
- tissue uptake at 0.5 h ([1]; tumor, 20 mg/kg): 1.62 ± 0.1 %ID/g
- tissue uptake at 1 h ([1]; tumor, 20 mg/kg): 1.26 ± 0.13 %ID/g
- tissue uptake at 2 h ([1]; tumor, 20 mg/kg): 0.49 ± 0.02 %ID/g
- tissue uptake at 1 h ([1]; tumor): 4.25 ± 0.82 %ID/g
- tissue uptake at 2 h ([1]; tumor): 3.35 ± 0.71 %ID/g
- specific tumor uptake higher than that of [18F]FPPRGD2 (U87MG tumor xenografts; 30 min, comparison in the same mice (Fig S5, Table S1)): 50%
- uptakes in organs such as liver and kidney compared with [18F]FPPRGD2 (U87MG tumor xenografts; comparison in the same mice): higher
SMILES: N=C(N)NCCC[C@@H]1NC(=O)[C@H](CCCCNC(=O)CC[C@H](NC(=O)COCCOCCOCCNC(=O)[C@@H]2CSC(c3nc4ccc(OCCF)cc4s3)=N2)C(=O)NCCCC[C@@H]2NC(=O)[C@@H](Cc3ccc(O)cc3)NC(=O)[C@H](CC(=O)O)NC(=O)CNC(=O)[C@H](CCCNC(=N)N)NC2=O)NC(=O)[C@@H](Cc2ccc(O)cc2)NC(=O)[C@H](CC(=O)O)NC(=O)CNC1=O [[^18F]CBTRGD2]
